The values that follow come from ChEMBL document CHEMBL5712895, “PRC2 Is Dispensable in Vivo for β-Catenin-Mediated Repression of Chondrogenesis in the Mouse Embryonic Cranial Mesenchyme” (G3 (Bethesda), 2018).

For orientation: IC50 means the concentration needed to halve the response being measured. High values mean lower potency, low ones higher potency.

Each structure is given as a SMILES string. Calls of active or inactive are those of the source. No cut-off for these calls is given here. Where only a bound is given, the exact number is not on record here.

Assay [1] has as its target Histone-lysine N-methyltransferase EZH2 (Mus musculus) (UniProt Q61188). Description: Inhibition of EZH2 in mouse primary cranial mesenchyme ectoderm fibroblast assessed as reduction in H3K27me3 protein level at 150 to 2000 nM by Western blotting analysis. As to conditions: dose 150-2000 nM. On the technique in general: Immunoblotting shows a protein as a band on a membrane.

For assay [2] the target is unchanged. Kind of assay: Inhibition of EZH2 in mouse primary cranial mesenchyme ectoderm fibroblast assessed as increase in Sox9 mRNA level by qPCR analysis.
For assay [3], the target named is T1, Histone-lysine N-methyltransferase EZH1 (Homo sapiens, UniProt Q92800).
T1 sequence (Q92800 whole entry): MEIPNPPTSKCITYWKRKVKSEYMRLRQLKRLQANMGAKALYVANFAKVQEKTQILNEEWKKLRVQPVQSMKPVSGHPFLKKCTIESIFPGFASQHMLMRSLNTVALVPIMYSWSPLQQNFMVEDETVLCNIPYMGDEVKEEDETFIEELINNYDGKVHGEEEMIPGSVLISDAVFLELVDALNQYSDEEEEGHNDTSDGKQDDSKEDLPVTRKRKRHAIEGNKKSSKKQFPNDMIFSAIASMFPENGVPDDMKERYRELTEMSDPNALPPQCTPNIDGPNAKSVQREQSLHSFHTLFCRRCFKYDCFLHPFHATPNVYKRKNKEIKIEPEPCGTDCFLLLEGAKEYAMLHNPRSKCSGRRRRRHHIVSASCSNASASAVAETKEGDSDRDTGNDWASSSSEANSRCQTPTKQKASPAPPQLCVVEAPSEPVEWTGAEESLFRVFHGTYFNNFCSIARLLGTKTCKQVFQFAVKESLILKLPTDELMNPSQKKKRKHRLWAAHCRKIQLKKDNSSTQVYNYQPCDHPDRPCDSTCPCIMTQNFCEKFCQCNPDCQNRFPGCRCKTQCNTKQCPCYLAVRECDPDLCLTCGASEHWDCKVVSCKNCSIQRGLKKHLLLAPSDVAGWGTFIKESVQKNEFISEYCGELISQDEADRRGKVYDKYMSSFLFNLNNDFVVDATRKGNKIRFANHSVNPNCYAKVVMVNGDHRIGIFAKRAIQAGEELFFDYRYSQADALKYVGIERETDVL
Kind of assay: Inhibition of EZH1 (unknown origin).

In assay [4] the target is Histone-lysine N-methyltransferase EZH2 (Homo sapiens, UniProt Q15910). Kind of assay: Inhibition of EZH2 (unknown origin).
Histone-lysine N-methyltransferase EZH2, sequence (Q15910 whole entry): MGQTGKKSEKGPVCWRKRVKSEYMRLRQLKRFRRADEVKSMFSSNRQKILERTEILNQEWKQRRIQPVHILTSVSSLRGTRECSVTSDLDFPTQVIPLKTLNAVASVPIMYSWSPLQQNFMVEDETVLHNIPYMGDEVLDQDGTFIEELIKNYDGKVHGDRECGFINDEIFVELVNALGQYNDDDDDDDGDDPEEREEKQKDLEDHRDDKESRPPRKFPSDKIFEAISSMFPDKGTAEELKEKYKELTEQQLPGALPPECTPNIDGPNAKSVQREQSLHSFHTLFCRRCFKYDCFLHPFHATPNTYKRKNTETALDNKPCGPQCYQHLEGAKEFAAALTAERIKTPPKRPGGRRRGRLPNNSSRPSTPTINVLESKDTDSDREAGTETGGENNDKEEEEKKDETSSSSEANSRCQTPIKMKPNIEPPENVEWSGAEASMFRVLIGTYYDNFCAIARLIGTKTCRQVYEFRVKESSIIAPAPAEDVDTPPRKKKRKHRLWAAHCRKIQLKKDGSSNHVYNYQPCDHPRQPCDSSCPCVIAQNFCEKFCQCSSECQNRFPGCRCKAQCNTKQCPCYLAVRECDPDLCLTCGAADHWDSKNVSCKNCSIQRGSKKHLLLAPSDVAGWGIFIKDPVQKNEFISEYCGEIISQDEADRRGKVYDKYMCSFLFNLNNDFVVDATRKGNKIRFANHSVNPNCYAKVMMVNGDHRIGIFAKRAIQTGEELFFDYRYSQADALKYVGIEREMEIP
Assay [5] has as its target Histone-lysine N-methyltransferase EZH2 (Mus musculus) (UniProt Q61188). Kind of assay: Inhibition of EZH2 in mouse primary cranial mesenchyme ectoderm fibroblast assessed as reduction in H3K27me3 protein level at 500 to 2000 nM by Western blotting analysis. The following applies: dose 500-2000 nM.

Histone-lysine N-methyltransferase EZH2 (Mus musculus), sequence (Q61188 whole entry): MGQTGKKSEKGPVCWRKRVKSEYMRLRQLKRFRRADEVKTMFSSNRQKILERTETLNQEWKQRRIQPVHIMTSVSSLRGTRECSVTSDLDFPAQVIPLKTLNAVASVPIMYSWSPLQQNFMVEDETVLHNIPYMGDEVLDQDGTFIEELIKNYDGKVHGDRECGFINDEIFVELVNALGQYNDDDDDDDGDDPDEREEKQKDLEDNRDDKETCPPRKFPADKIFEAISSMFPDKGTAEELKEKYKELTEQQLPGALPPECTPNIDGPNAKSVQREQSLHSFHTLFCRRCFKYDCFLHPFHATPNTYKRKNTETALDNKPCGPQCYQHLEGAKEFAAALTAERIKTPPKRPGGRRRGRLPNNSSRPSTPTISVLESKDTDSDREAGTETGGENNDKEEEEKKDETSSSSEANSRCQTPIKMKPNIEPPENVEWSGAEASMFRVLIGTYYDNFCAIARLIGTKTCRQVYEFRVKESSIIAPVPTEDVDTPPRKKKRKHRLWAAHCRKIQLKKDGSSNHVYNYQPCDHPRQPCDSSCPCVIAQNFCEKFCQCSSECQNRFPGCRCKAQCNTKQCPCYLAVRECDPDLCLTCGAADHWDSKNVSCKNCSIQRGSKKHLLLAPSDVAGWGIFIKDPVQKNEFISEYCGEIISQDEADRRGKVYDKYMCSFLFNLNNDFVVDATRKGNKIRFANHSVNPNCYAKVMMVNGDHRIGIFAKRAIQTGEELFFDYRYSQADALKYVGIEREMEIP

For `CC[C@H](C)n1cc(C)c2c(C(=O)NCc3c(C)cc(C)[nH]c3=O)cc(-c3ccc(N4CCNCC4)nc3)cc21` [GSK2816126], the inhibition result in assay [1] is “Active”. The inhibition result in assay [2] is “inactive”. Moreover, in assay [3], the IC50 turned out to be 75 nM.
In turn, `CCCc1cc(C)[nH]c(=O)c1CNC(=O)c1cc(-c2ccc(N3CCN(C(C)C)CC3)nc2)cc2c1cnn2C(C)C` registered an IC50 in assay [4] below 10 nM. Besides, the inhibition entry in assay [2] is “inactive”. Besides, the inhibition result in assay [5] was “Active”.
